This passage reports IC50 results from patent publication US20250122223A1, “HETEROCYCLIC COMPOUNDS AS UBIQUITIN SPECIFIC PROTEASE 7 INHIBITORS” (ALMAC DISCOVERY LIMITED, priority 2022, published 2025).

Where two headings read alike, the source gives them in different places.

The assay deals with USP7 (Homo sapiens (Human), UniProt Q93009). Put plainly: USP7 fluorescence polarisation (FP) assay with ubiquitin-Lys-TAMRA substrate. It is filed as biochemical. The conditions noted are these: biochemical inhibition. Background: Polarisation of emitted light reports the rotation of a fluorescent probe.
Chain of USP7 (Q93009 whole entry): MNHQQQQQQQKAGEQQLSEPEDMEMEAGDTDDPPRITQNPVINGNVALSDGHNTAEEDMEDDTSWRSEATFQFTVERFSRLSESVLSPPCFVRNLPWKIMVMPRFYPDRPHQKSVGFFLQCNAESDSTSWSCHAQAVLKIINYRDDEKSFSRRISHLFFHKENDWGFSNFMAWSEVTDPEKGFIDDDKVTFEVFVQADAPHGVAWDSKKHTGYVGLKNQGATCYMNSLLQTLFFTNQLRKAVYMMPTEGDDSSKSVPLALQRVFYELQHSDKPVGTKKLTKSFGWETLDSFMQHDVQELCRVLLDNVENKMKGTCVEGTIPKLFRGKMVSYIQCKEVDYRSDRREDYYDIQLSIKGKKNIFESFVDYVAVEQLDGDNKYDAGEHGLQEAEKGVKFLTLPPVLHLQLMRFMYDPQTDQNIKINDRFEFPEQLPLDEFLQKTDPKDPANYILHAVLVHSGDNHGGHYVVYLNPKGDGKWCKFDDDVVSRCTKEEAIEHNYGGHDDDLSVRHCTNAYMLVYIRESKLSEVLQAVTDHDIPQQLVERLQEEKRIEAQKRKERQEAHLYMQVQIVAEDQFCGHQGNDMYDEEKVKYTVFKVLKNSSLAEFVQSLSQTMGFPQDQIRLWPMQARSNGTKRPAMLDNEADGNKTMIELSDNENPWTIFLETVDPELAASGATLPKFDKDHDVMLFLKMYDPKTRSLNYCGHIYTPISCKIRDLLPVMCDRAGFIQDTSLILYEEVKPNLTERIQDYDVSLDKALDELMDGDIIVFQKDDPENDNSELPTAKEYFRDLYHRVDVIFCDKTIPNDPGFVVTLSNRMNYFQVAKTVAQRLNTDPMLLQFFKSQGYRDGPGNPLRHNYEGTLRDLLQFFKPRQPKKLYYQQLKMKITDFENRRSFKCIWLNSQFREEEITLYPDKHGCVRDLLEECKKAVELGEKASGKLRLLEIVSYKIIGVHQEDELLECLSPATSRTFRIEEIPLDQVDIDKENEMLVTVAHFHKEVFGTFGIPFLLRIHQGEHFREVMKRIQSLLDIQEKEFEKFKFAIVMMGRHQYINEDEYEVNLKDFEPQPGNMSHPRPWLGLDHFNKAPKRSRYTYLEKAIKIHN
Where [1] appears, read: read-out: USP7 IC50 activity (Table 3a, classes).
Setting [2] is: unit not given in Table 3b (Table 1 and key of Table 3a use μM), read-out: USP7 IC50 activity (Table 3b).

Usually IC50 stands for the concentration that gives 50% inhibition. `C[C@H]1CN[C@H](c2ccc(-n3c(Cl)cc4c(=O)n(CC5(O)CCN(C(=O)c6cccc(Cl)c6)CC5)cnc43)cc2)CO1` [Example 35, 6-Chloro-3-((1-(3-chlorobenzoyl)-4-hydroxypiperidin-4-yl)methyl)-7-(4-((3R,6S)-6-methylmorpholin-3-yl)phenyl)-3,7-dihydro-4H-pyrrolo[2,3-d]pyrimidin-4-one]: the IC50 runs as follows: under setting [1], 0.1 to 0.25 µM; under setting [2], 0.224 µM.

For `C[C@H]1CN[C@H](c2ccc(-n3c(Cl)cc4c(=O)n(CC5(O)CCN(C(=O)c6ccccc6F)CC5)cnc43)cc2)CO1` [Example 36, 6-Chloro-3-((1-(2-fluorobenzoyl)-4-hydroxypiperidin-4-yl)methyl)-7-(4-((3R,6S)-6-methylmorpholin-3-yl)phenyl)-3,7-dihydro-4H-pyrrolo[2,3-d]pyrimidin-4-one], the IC50 by setting is: under setting [1], 0.25 to 2 µM; under setting [2], 0.511 µM.

For `C[C@H]1CN[C@H](c2ccc(-n3c(Cl)cc4c(=O)n(CC5(O)CCN(C(=O)c6ccc(F)c(F)c6)CC5)cnc43)cc2)CO1` [Example 37, 6-Chloro-3-((1-(3,4-difluorobenzoyl)-4-hydroxypiperidin-4-yl)methyl)-7-(4-((3R,6S)-6-methylmorpholin-3-yl)phenyl)-3,7-dihydro-4H-pyrrolo[2,3-d]pyrimidin-4-one], the IC50 is 0.25 to 2 µM under setting [1] and 0.254 µM under setting [2].

For `C[C@H]1CN[C@H](c2ccc(-n3c(Cl)cc4c(=O)n(CC5(O)CCN(C(=O)c6cccc(F)c6)CC5)cnc43)cc2)CO1` [Example 38, 6-Chloro-3-((1-(3-fluorobenzoyl)-4-hydroxypiperidin-4-yl)methyl)-7-(4-((3R,6S)-6-methylmorpholin-3-yl)phenyl)-3,7-dihydro-4H-pyrrolo[2,3-d]pyrimidin-4-one], the IC50 is, setting by setting: under setting [1], 0.25 to 2 µM; under setting [2], 0.302 µM.

Regarding `C[C@H]1CN[C@H](c2ccc(-n3c(Cl)cc4c(=O)n(CC5(O)CCN(C(=O)c6cccc(F)c6F)CC5)cnc43)cc2)CO1` [Example 39, 6-Chloro-3-((1-(2,3-difluorobenzoyl)-4-hydroxypiperidin-4-yl)methyl)-7-(4-((3R,6S)-6-methylmorpholin-3-yl)phenyl)-3,7-dihydro-4H-pyrrolo[2,3-d]pyrimidin-4-one], the IC50 was 0.25 to 2 µM under setting [1] and 1.15 µM under setting [2].

With `C[C@H]1CN[C@H](c2ccc(-n3c(Cl)cc4c(=O)n(CC5(O)CCN(C(=O)C6(C7CC7)CC6)CC5)cnc43)cc2)CO1` [Example 42, 3-((1-([1,1′-Bi(cyclopropane)]-1-carbonyl)-4-hydroxypiperidin-4-yl)methyl)-6-chloro-7-(4-((3R,6S)-6-methylmorpholin-3-yl)phenyl)-3,7-dihydro-4H-pyrrolo[2,3-d]pyrimidin-4-one], the IC50 under setting [1] was less than 0.1 µM and the IC50 under setting [2] was 0.091 µM.

`CC[C@H]1CN[C@H](c2ccc(-n3c(Cl)cc4c(=O)n(CC5(O)CCN(C(=O)c6ccc(F)cc6)CC5)cnc43)cc2)CO1` [Example 45, 6-Chloro-7-(4-((3R,6S)-6-ethylmorpholin-3-yl)phenyl)-3-((1-(4-fluorobenzoyl)-4-hydroxypiperidin-4-yl)methyl)-3,7-dihydro-4H-pyrrolo[2,3-d]pyrimidin-4-one]: the IC50 runs as follows: under setting [1], 0.1 to 0.25 µM; under setting [2], 0.176 µM.

With `CC[C@H]1CN[C@H](c2ccc(-n3c(Cl)cc4c(=O)n(CC5(O)CCN(C(=O)c6ccc(Cl)cc6)CC5)cnc43)cc2)CO1` [Example 46, 6-Chloro-3-((1-(4-chlorobenzoyl)-4-hydroxypiperidin-4-yl)methyl)-7-(4-((3R,6S)-6-ethylmorpholin-3-yl)phenyl)-3,7-dihydro-4H-pyrrolo[2,3-d]pyrimidin-4-one], the half-maximal inhibitory concentration (IC50) reads like this: under setting [1], 0.1 to 0.25 µM; under setting [2], 0.162 µM.
